Experimental data reported in patent US6685617B1, “Inhibitors of α4β1 mediated cell adhesion” (Pharmacia & Upjohn Company, priority 1998, dated 2004).

Columns and labels:
[1] = biological target: T1, α4β1 integrin (Jurkat T-cell adhesion to IL-1 stimulated endothelial cell monolayers) (Homo sapiens, UniProt P05556+P13612); assay: Jurkat-endothelial cell adhesion assay (Jurkat EC); format: cell-based; conditions: Jurkat cells on IL-1 stimulated human umbilical vein endothelial cells; read-out: JK/EC (Jurkat EC Assay IC50 value range)
T1 construct: a T-cell line, Jurkat, known to express the α4β1 integrin; host or cells: Jurkat T-cell line
Procedure, shortened: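 Adhesion was expressed as percent of compound-free fluorescence after 20 min at 37° C (following 5 min settling on ice) of BCECF-loaded Jurkat T cells on washed HUVEC monolayers. The endothelium, passage 6 or lower, had received 0.1 ng/ml recombinant IL-1 for 4 hr at 37° C; compound was premixed with the T cells, typically at 100, 20, 5 and 1.25 μM.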

[2] = biological target: T2, α4β1 integrin (Jurkat cell adhesion to immobilized CS-1 derived peptide CLHPGEILDVPST) (Homo sapiens, UniProt P05556+P13612); assay: Jurkat-CS-1 assay; format: cell-based; conditions: Jurkat cells on CS-1 peptide coated plates; read-out: JK/CS-1 (Jurkat CS-1 Assay IC50 value range)
T2 construct: 100 μl of Jurkat cells (2.5×10^6 cells/ml) in DMEM plus BSA; host or cells: Jurkat T-cell line
Procedure, shortened: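 CS-1 peptide was SPDP-crosslinked onto HSA-coated plates and blocked with BSA. Jurkat cells (2.5×10^6 cells/ml) in DMEM/BSA were mixed with compound, generally at 100, 20, 5 and 1.25 μM, and allowed to adhere for 1 hr at 37° C. Bound cells were fixed, stained with toluidine blue and quantified by OD590.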

T2 sequence (P13612 34-1032): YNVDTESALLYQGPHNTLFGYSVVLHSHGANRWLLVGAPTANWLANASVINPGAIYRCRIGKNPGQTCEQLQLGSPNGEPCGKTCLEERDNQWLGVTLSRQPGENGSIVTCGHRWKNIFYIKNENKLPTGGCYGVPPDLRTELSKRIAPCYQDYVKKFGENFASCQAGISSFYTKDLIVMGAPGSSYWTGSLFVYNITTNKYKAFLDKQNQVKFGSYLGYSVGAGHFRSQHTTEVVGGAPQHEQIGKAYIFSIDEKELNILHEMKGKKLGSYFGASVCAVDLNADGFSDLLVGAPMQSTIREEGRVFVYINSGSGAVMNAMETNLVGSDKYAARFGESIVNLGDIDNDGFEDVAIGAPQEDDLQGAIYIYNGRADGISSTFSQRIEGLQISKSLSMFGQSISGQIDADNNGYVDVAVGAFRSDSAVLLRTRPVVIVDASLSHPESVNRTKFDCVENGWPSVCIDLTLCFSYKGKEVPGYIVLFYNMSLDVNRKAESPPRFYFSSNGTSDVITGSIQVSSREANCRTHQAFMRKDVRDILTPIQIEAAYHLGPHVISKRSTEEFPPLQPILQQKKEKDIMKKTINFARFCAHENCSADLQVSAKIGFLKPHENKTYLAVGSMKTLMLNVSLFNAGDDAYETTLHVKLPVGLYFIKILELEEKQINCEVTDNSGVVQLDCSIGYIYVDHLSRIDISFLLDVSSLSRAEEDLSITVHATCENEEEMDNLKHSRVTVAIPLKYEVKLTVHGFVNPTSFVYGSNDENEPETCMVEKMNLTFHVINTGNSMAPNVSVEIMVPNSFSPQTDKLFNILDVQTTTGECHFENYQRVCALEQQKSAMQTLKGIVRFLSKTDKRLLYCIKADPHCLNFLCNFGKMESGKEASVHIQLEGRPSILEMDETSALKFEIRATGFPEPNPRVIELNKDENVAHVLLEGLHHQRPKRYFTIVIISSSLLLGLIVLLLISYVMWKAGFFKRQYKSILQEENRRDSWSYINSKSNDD
T2 sequence (P05556 21-798): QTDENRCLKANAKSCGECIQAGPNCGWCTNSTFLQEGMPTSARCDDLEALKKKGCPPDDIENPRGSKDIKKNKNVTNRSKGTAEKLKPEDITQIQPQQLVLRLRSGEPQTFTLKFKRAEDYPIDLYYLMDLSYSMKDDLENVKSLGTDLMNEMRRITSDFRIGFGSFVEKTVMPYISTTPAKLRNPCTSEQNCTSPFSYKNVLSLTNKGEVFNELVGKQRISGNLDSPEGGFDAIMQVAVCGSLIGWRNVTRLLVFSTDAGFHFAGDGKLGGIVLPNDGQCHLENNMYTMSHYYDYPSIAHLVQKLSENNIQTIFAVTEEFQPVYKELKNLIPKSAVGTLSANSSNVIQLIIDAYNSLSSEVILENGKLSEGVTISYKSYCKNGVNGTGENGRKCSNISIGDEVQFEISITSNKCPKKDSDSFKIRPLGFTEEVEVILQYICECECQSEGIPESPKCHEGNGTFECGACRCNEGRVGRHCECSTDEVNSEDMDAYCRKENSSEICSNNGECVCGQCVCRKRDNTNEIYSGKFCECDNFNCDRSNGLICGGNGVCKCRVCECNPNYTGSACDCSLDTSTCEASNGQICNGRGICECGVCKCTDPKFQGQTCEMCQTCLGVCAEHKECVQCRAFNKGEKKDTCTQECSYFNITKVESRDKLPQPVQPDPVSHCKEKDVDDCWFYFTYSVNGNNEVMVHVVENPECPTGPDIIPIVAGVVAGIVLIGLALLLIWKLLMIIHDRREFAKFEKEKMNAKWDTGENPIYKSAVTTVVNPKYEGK
T1 sequence (P13612 34-1032): as the sequence (P13612 34-1032) above
T1 sequence (P05556 21-798): as the sequence (P05556 21-798) above

IC50 [1] [nM] | IC50 [2] [nM] | Structure (SMILES)
≥ 1000 | ≥ 750 | CCOC(=O)N1[C@@H](C(=O)N[C@@H](Cc2ccc(NC(=O)c3c(Cl)cccc3Cl)cc2)C(=O)O)CSC12CCCCC2 (relative stereo) [Example 80, [S-(R*,R*)]-3-[[[1-Carboxy-2-[4-[(2,6-dichlorobenzoyl)amino]phenyl]ethyl]amino]carbonyl]-1-thia-4-azaspiro[4.5]decane-4-carboxylic Acid 4-Ethyl Ester]
250 to 1000 | 50 to 750 | CCOC(=O)N1[C@@H](C(=O)N[C@@H](Cc2ccc(NC(=O)c3c(Cl)cccc3Cl)cc2)C(=O)O)C(C)(C)SC1(C)C (relative stereo) [Example 82, [S-(R*,R*)]-4-[[[1-Carboxy-2-[4-[(2,6-dichlorobenzoyl)amino]phenyl]ethyl]amino]carbonyl]-2,2,5,5-tetramethyl-3-thiazolidinecarboxylic Acid 3-Ethyl Ester]
≤ 250 | ≤ 50 | CC1(C)SC[C@H](C(=O)N[C@@H](Cc2ccc(NC(=O)c3c(Cl)cccc3Cl)cc2)C(=O)O)N1C(=O)CCC(=O)O (relative stereo) [Example 85, [S-(R*,R*)]-4-[[[1-Carboxy-2-[4-[(2,6-dichlorobenzoyl)amino]phenyl]ethyl]amino]carbonyl]-2,2-dimethyl-γ-oxo-3-thiazolidinebutanoic Acid]
≥ 1000 | ≥ 750 | COC(=O)CCC(=O)N1[C@@H](C(=O)N[C@@H](Cc2ccc(NC(=O)c3c(Cl)cccc3Cl)cc2)C(=O)OC)C(C)(C)SC1(C)C (relative stereo) [Example 86, [S-(R*,R*)]-4-[[[1-[[4-[(2,6-Dichlorobenzoyl)amino]phenyl]methyl]-2-methoxy-2-oxoethyl]amino]carbonyl]-2,2,5,5-tetramethyl-γ-oxo-3-thiazolidinebutanoic Acid Methyl Ester]
≥ 1000 | 50 to 750 | CC1(C)SC(C)(C)N(C(=O)CCCC(=O)O)[C@@H]1C(=O)N[C@@H](Cc1ccc(NC(=O)c2c(Cl)cccc2Cl)cc1)C(=O)O (relative stereo) [Example 88, [R-(R*,S*)]-4-[[[1-Carboxy-2-[4-[(2,6-dichlorobenzoyl)amino]phenyl]ethyl]amino]carbonyl]-2,2,5,5-tetramethyl-δ-oxo-3-thiazolidinepentanoic Acid]
≥ 1000 | 50 to 750 | NC(=O)[C@H](Cc1ccc(OCc2c(Cl)cccc2Cl)cc1)NC(=O)[C@H]1CSCN1C(=O)OCCN1CCOCC1 (relative stereo) [Example 89, [S-(R*,R*)]-4-[[[1-[[4-[(2,6-Dichlorophenyl)methoxy]phenyl]methyl]-2-amino-2-oxoethyl]amino]carbonyl]-3-thiazolidinecarboxylic Acid 3-[2-(4-morpholinyl)ethyl]ester]
≤ 250 | ≤ 50 | O=C(O)CCC(=O)N1CCSC[C@H]1C(=O)N[C@@H](Cc1ccc(NC(=O)c2c(Cl)cccc2Cl)cc1)C(=O)O (relative stereo) [Example 99, [R-(R*,S*)]-3-[[[1-Carboxy-2-[4-[(2,6-dichlorobenzoyl)amino]phenyl]ethyl]amino]carbonyl]-γ-oxo-4-thiomorpholinebutanoic Acid]
250 to 1000 | 50 to 750 | CC(C)(C)OC(=O)N1CCSC[C@H]1C(=O)N[C@@H](Cc1ccc(NC(=O)c2c(Cl)cccc2Cl)cc1)C(=O)O (relative stereo) [Example 100, [R-(R*,S*)]-3-[[[1-Carboxy-2-[4-[(2,6-dichlorobenzoyl)amino]phenyl]ethyl]amino]carbonyl]-4-thiomorpholinecarboxylic Acid 4-(1,1-Dimethylethyl)ester]
≤ 250 | ≤ 50 | COC(=O)[C@H](Cc1ccc(NC(=O)c2c(Cl)cccc2Cl)cc1)NC(=O)[C@H]1CSCN1C(=O)OCc1ccccn1 (relative stereo) [Example 148, [S-(R*,R*)]-4-[[[1-[[4-[(2,6-Dichlorobenzoyl)amino]phenyl]methyl]-2-methoxy-2-oxoethyl]amino]carbonyl]-3-thiazolidinecarboxylic Acid 3-(2-Pyridinylmethyl)ester]
≤ 250 | ≤ 50 | O=C(Nc1ccc(C[C@H](NC(=O)[C@H]2CSCN2C(=O)OCc2ccccn2)C(=O)O)cc1)c1c(Cl)cccc1Cl (relative stereo) [Example 149, [S-(R*,R*)]-4-[[[-Carboxy-2-[4-[(2,6-dichlorobenzoyl)amino]phenyl]ethyl]amino]carbonyl]-3-thiazolidinecarboxylic Acid 3-(2-pyridinylmethyl)ester]
250 to 1000 | 50 to 750 | COC(=O)[C@H](Cc1ccc(NC(=O)c2c(Cl)cccc2Cl)cc1)NC(=O)[C@H]1CSCN1C(=O)CCCC(=O)O (relative stereo) [Example 150, [S-(R*,R*)]-4-[[[1-[[4-[(2,6-Dichlorobenzoyl)amino]phenyl]methyl]-2-methoxy-2-oxoethyl]amino]carbonyl]-δ-oxo-3-thiazoidinepentanoic Acid]
≤ 250 | ≤ 50 | COC(=O)CCCC(=O)N1CSC[C@@H]1C(=O)N[C@@H](Cc1ccc(NC(=O)c2c(Cl)cccc2Cl)cc1)C(=O)O (relative stereo) [Example 151, [S-(R*,R*)]-4-[[[1-Carboxy-2-[4-[(2,6-dichlorobenzoyl)amino]phenyl]ethyl]amino]carbonyl]-δ-oxo-3-thiazoidinepentanoic Acid Methyl Ester]
≤ 250 | ≤ 50 | O=C(O)[C@H](Cc1ccc(OCc2c(Cl)cccc2Cl)cc1)NC(=O)[C@H]1CSCN1C(=O)OCCN1CCCCC1 (relative stereo) [Example 152, [S-(R*,R*)]-4-[[[1-Carboxy-2-[4-[(2,6-dichlorophenyl)methoxy]phenyl]ethyl]amino]carbonyl]-3-thiazolidinecarboxylic Acid 3-[2-(1-Piperidinyl)ethyl]ester]
≥ 1000 | ≥ 750 | CCOC(=O)N1[C@@H](C(=O)N[C@@H](Cc2ccc(OCc3c(Cl)cccc3Cl)cc2)C(=O)O)CSC12CCN(C)CC2 (relative stereo) [Example 155, [S-(R*,R*)]-3-[[[1-Carboxy-2-[4-[(2,6-dichlorophenyl)methoxy]phenyl]ethyl]amino]carbonyl]-8-methyl-1-thia-4,8-diazaspiro[4.5]decane-4-carboxylic Acid 4-Ethyl Ester]
≤ 250 | 50 to 750 | O=C(O)CCC(=O)N1CCCCC[C@H]1C(=O)N[C@@H](Cc1ccc(NC(=O)c2c(Cl)cccc2Cl)cc1)C(=O)O (relative stereo) [Example 157, [S-(R*,R*)]-2-[[[1-Carboxy-2-[4-[(2,6-dichlorobenzoyl)amino]phenyl]ethyl]amino]carbonyl]-hexahydro-γ-oxo-1H-azepine-1-butanoic Acid]
≥ 1000 | ≥ 750 | CCOC(=O)N1[C@@H](C(=O)N[C@@H](Cc2ccc(OCc3c(Cl)cccc3Cl)cc2)C(=O)O)CSC12CCCC2 (relative stereo) [Example 161, [S-(R*,R*)]-3-[[[1Carboxy-2-[4-[(2,6-dichlorophenyl)methoxy]phenylethyl]amino]carbonyl]-1-thia-4-azapiro[4.4]nonane-4-carboxylic Acid 4-Ethyl Ester]
≥ 1000 | ≥ 750 | CC(c1ccccc1)N1C(C(=O)O)CC1C(=O)NC(Cc1ccc(NC(=O)c2c(Cl)cccc2Cl)cc1)C(=O)O (single isomer, unassigned) [Example 133]
≥ 1000 | 50 to 750 | CC(c1ccccc1)N1C(C(=O)O)CC1C(=O)NC(Cc1ccc(NC(=O)c2c(Cl)cccc2Cl)cc1)C(=O)O (single isomer, unassigned) [Example 139]
≥ 1000 | ≥ 750 | COC(=O)[C@H](Cc1ccc(NC(=O)c2c(Cl)cccc2Cl)cc1)NC(=O)[C@@H]1CSCN1C(=O)OC(C)(C)C (stereo in doubt) [Example 13, [R-(R*,S*)]-4-[[[1-[[4-[(2,6-Dichlorobenzoyl)amino]phenyl]methyl]-2-methoxy-2-oxoethyl]amino]carbonyl]-3-thiazolidinecarboxylic Acid 3-(1,1-Dimethylethyl)ester]
250 to 1000 | 50 to 750 | CC(C)(C)OC(=O)N1CSC[C@H]1C(=O)N[C@@H](Cc1ccc(NC(=O)c2c(Cl)cccc2Cl)cc1)C(=O)O (stereo in doubt) [Example 14, [R-(R*,S*)]-4-[[[1-Carboxy-2-[4-[(2,6-dichlorobenzoyl)amino]phenyl]ethyl]amino]carbonyl]-3-thiazolidinecarboxylic Acid 3-(1,1-Dimethylethyl)ester]
≥ 1000 | ≥ 750 | COC(=O)[C@@H](Cc1ccc(NC(=O)c2c(Cl)cccc2Cl)cc1)NC(=O)[C@H]1CSCN1C(=O)OC(C)(C)C (stereo in doubt) [Example 26, [S-(R*,S*)]-4-[[[1-[4-[(2,6-Dichlorobenzoyl)amino]phenyl]methyl]-2-methoxy-2-oxoethyl]amino]carbonyl]-3-thiazolidinecarboxylic Acid 3-1,1-Dimethylethyl)ester]
≥ 1000 | ≥ 750 | CC(C)(C)OC(=O)N1CSC[C@@H]1C(=O)N[C@H](Cc1ccc(NC(=O)c2c(Cl)cccc2Cl)cc1)C(=O)O (stereo in doubt) [Example 27, [S-(R*,S*)]-4-[[[1-Carboxy-2-[4-[(2,6-dichlorobenzoyl)amino]phenyl]ethyl]amino]carbonyl]-3-thiazolidinecarboxylic Acid 3-(1,1-Dimethylethyl)ester]
